40 molecules from patent publication US8853246B2 (Dow AgroSciences LLC, priority 2009, dated 2014) can be followed below.

The subject of series [1] is Green Peach Aphid (Myzus Persicae). The series is described as follows: Insecticidal test for green peach aphid in foliar spray assay (col. MYZUPE). The class given is in vivo. The conditions noted are these: Myzus persicae, 72 h, green peach aphid, read-out: MYZUPE 200 ppm (Corrected % Control, rating). The method in brief:
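Cabbage seedlings with 2-3 true leaves, infested with 20-50 wingless adult and nymph aphids one day earlier, sprayed to runoff at 200 ppm (acetone/methanol stock diluted in 0.025% Tween 20), four pots per treatment. After 3 days at ~25 °C, 40% RH, live aphids counted; corrected % control versus solvent-sprayed plants.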

The test system of series [2] is Sweetpotato Whitefly-Crawler (Bemisia Tabaci). The series is described as follows: Insecticidal test for sweetpotato whitefly-crawler in foliar spray assay (col. BEMITA). In kind it is in vivo. As to conditions: Bemisia tabaci, sweetpotato whitefly-crawler, read-out: BEMITA 200 ppm (Corrected % Control, rating). The method in brief: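 Cotton plants (one 3-5 cm true leaf) infested with whitefly eggs (100-300/plant), held 5-6 days at 82° F, 50% RH until crawlers developed. Sprayed to runoff at 200 ppm (acetone stock diluted in 0.025% Tween 20), four plants per treatment. Live nymphs counted after 8-9 days; % control by Abbott's correction versus solvent check.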

Where only a bound is given, the exact number is not on record here.

For orientation: melting point means the temperature, or range, at which the solid turns liquid.

Molecule `CC(=O)Nc1sc(-c2cccnc2)nc1C` [Compound 186] registered a melting point of 180 to 182 °C. The pest or weed control at 200 ppm in series [1] is < 80%. The pest or weed control at 200 ppm in series [2] is < 80%.
Consider `Cc1nc(-c2cccnc2)sc1NC(=O)[C@H](C)NC(=O)OC(C)(C)C` [Compound 187], for which the melting point was in the range of 166 to 169 °C. The pest or weed control at 200 ppm in series [1] was 80 to 100%. Moreover, the pest or weed control at 200 ppm in series [2] was < 80%.
Taken in the same sequence, the figures for `CC(=O)N(C)c1sc(-c2cccnc2)nc1C` [Compound 193] were 127 to 130 °C, 80 to 100% and 80 to 100%.
Taken in the same sequence, the figures for `COC(=O)CCC(=O)Nc1sc(-c2cccnc2)nc1C` [Compound 197] were 151 to 153 °C, 80 to 100% and < 80%.
In the case of `COCC(C)(C)OC(=O)Nc1sc(-c2cccnc2)nc1C` [Compound 199], the melting point was in the range of 120 to 123 °C. In addition, the pest or weed control at 200 ppm in series [1] was 80 to 100%. In addition, the pest or weed control at 200 ppm in series [2] was 80 to 100%.
As for `Cc1nc(-c2cccnc2)sc1NC(=O)OCc1ccccc1` [Compound 201], the melting point lay within 137 to 139 °C. For the same molecule, the pest or weed control at 200 ppm in series [1] is < 80%. Also, the pest or weed control at 200 ppm in series [2] was < 80%.
As to `COC(=O)Nc1sc(-c2cccnc2)nc1C` [Compound 202], the melting point was in the range of 159 to 160 °C. The pest or weed control at 200 ppm in series [1] is < 80%. Further, the pest or weed control at 200 ppm in series [2] was < 80%.
For `C=CC(=O)N(C(=O)OC(C)(C)C)c1sc(-c2cccnc2)nc1C` [Compound 205], the melting point lay within 68 to 70 °C. Moreover, the pest or weed control at 200 ppm in series [1] was 80 to 100%. In addition, the pest or weed control at 200 ppm in series [2] is 80 to 100%.
The molecule `Cc1nc(-c2cccnc2)sc1NC(=O)CCCCl` [Compound 209] displayed a melting point of 144 to 147 °C. Besides, the pest or weed control at 200 ppm in series [1] was in the range of 80 to 100%. Besides, the pest or weed control at 200 ppm in series [2] is < 80%.
Taken in the same sequence, the figures for `CSC(C)(C)CC(=O)N(C)c1sc(-c2cncc(F)c2)nc1C` [Compound 212] were 73 to 80 °C, 80 to 100% and 80 to 100%.
Taken in the same sequence, the figures for `CS[C@H]1CC1C(=O)N(C)c1sc(-c2cncc(F)c2)nc1C` (stereo partly drawn) [Compound 216] were 88 to 90 °C, 80 to 100% and 80 to 100%.
`CSC(C)(C)CC(=O)Nc1sc(-c2cncc(F)c2)nc1C` [Compound 217]: the melting point was 123 to 126 °C. In addition, the pest or weed control at 200 ppm in series [1] lay within 80 to 100%. Further, in series [2], the pest or weed control at 200 ppm was < 80%.
Taken in the same sequence, the figures for `Cc1nc(-c2cncc(F)c2)sc1NC(=O)C1CCSC1` (stereo not drawn) [Compound 219] were 209 to 213 °C, 80 to 100% and < 80%.
Taken in the same sequence, the figures for `CS[C@H]1CC1C(=O)Nc1sc(-c2cncc(F)c2)nc1C` (stereo partly drawn) [Compound 220] were 206 to 212 °C, 80 to 100% and 80 to 100%.
The molecule `C=CC[S+]([O-])CC(C)C(=O)Nc1sc(-c2cccnc2)nc1C` (stereo not drawn) [Compound 225] came in with a melting point of 147 to 149 °C. The pest or weed control at 200 ppm in series [1] lay in the range of 80 to 100%. Besides, the pest or weed control at 200 ppm in series [2] lay in the range of 80 to 100%.
As for `CCN(C(=O)CC[S+](C)[O-])c1sc(-c2cccnc2)nc1C` (stereo not drawn) [Compound 238], the melting point lay within 89 to 92 °C. For the same molecule, the pest or weed control at 200 ppm in series [1] was in the range of 80 to 100%. In series [2], the pest or weed control at 200 ppm was 80 to 100%.
Molecule `Cc1nc(-c2cncc(Br)c2)sc1N(C)C(=O)OC(C)(C)C` [Compound 251] gave a melting point of 74 to 76 °C. Also, the pest or weed control at 200 ppm in series [1] is < 80%. Besides, the pest or weed control at 200 ppm in series [2] fell in the range of 80 to 100%.
Turning to `CC(C)C(=O)N(C)c1sc(-c2cncc(F)c2)nc1Cl` [Compound 263], the melting point was 123 to 125 °C. The pest or weed control at 200 ppm in series [1] fell in the range of 80 to 100%. In addition, the pest or weed control at 200 ppm in series [2] fell in the range of 80 to 100%.
`CSCC(C)(C)C(=O)N(C)c1sc(-c2cccnc2)nc1Cl` [Compound 264] came in with a melting point of 103 to 106 °C. Further, the pest or weed control at 200 ppm in series [1] is 80 to 100%. For the same molecule, the pest or weed control at 200 ppm in series [2] lay within 80 to 100%.
For `CC(C)(C)OC(=O)N(COCc1ccccc1)c1cnc(-c2cccnc2)s1` [Compound 265], the melting point is 98 to 99 °C. The pest or weed control at 200 ppm in series [1] lay in the range of 80 to 100%. In series [2], the pest or weed control at 200 ppm was < 80%.
Taken in the same sequence, the figures for `CN(C(=O)c1cnn(C)c1)c1sc(-c2cncc(F)c2)nc1Cl` [Compound 268] were 151 to 155 °C, 80 to 100% and 80 to 100%.
Taken in the same sequence, the figures for `CC(CS(C)(=O)=O)C(=O)N(C)c1sc(-c2cncc(F)c2)nc1Cl` (stereo not drawn) [Compound 271] were 151 to 154 °C, 80 to 100% and 80 to 100%.
The molecule `CC(C)(C)OC(=O)N(C(=O)OC(C)(C)C)c1cnc(-c2cncc(F)c2)s1` [Compound 277, di(tert-butyl)2-(5-fluoropyridin-3-yl)-1,3-thiazol-5-ylimidodicarbonate] yielded a melting point of 94 to 96 °C. In series [1], the pest or weed control at 200 ppm was in the range of 80 to 100%. Further, in series [2], the pest or weed control at 200 ppm is 80 to 100%.
In the case of `CSCC(C)C(=O)N(C)c1sc(-c2cncc(Br)c2)nc1C` (stereo not drawn) [Compound 296], the melting point was 79 to 81 °C. Also, the pest or weed control at 200 ppm in series [1] fell in the range of 80 to 100%. In series [2], the pest or weed control at 200 ppm lay in the range of 80 to 100%.
`CC(C)(C)OC(=O)Nc1sc(-c2cncc(F)c2)nc1Br` [Compound 297] came in with a melting point of 164 to 166 °C. The pest or weed control at 200 ppm in series [1] was < 80%. In addition, the pest or weed control at 200 ppm in series [2] was < 80%.
The molecule `CSCCC(=O)Nc1sc(-c2cncc(F)c2)nc1Br` [Compound 298] registered a melting point of 160 to 163 °C. In addition, the pest or weed control at 200 ppm in series [1] lay in the range of 80 to 100%. Moreover, in series [2], the pest or weed control at 200 ppm is < 80%.
Molecule `CC(C[S+](C)[O-])C(=O)Nc1sc(-c2cncc(F)c2)nc1Br` (stereo not drawn) [Compound 306] came in with a melting point of 172 to 175 °C. In addition, the pest or weed control at 200 ppm in series [1] lay in the range of 80 to 100%. In addition, the pest or weed control at 200 ppm in series [2] is < 80%.
The corresponding values for `CC(CS(C)(=O)=O)C(=O)Nc1sc(-c2cncc(F)c2)nc1Br` (stereo not drawn) [Compound 307] are 185 to 188 °C, 80 to 100% and < 80%.
As for `CCN(C(=O)CCSC)c1cnc(-c2cncc(F)c2)s1` [Compound 308], the melting point lay in the range of 78 to 81 °C. Also, in series [1], the pest or weed control at 200 ppm was in the range of 80 to 100%. Moreover, in series [2], the pest or weed control at 200 ppm was 80 to 100%.
Take `Cc1nc(-c2cncc(F)c2)sc1NC(=O)OC(C)(C)C` [Compound 309]: the melting point is 160 to 161 °C. Moreover, the pest or weed control at 200 ppm in series [1] was < 80%. In addition, in series [2], the pest or weed control at 200 ppm is < 80%.
With `CCN(C(=O)C(C)CSC)c1sc(-c2cccnc2)nc1Cl` (stereo not drawn) [Compound 316, N-(4-chloro-2-pyridin-3-yl-thiazol-5-yl)-N-ethyl-2-methyl-3-methylsulfanyl-propionamide], the melting point is 79 to 81 °C. Further, the pest or weed control at 200 ppm in series [1] lay in the range of 80 to 100%. In series [2], the pest or weed control at 200 ppm is < 80%.
For the molecule `CC(C)(C)OC(=O)N(C(=O)OC(C)(C)C)c1sc(-c2cncc(F)c2)nc1Br` [Compound 317], the melting point was 154 to 156 °C. For the same molecule, in series [1], the pest or weed control at 200 ppm was in the range of 80 to 100%. Moreover, the pest or weed control at 200 ppm in series [2] was < 80%.
The corresponding values for `CN(C(=O)OC(C)(C)C)c1sc(-c2cncc(F)c2)nc1Br` [Compound 318] are 108 to 110 °C, 80 to 100% and < 80%.
`COCC(C)OC(=O)Nc1sc(-c2cccnc2)nc1C` (stereo not drawn) [Compound 325] yielded a melting point of 106 to 111 °C. Also, the pest or weed control at 200 ppm in series [1] fell in the range of 80 to 100%. In addition, the pest or weed control at 200 ppm in series [2] fell in the range of 80 to 100%.
On to `CCN(C(=O)C(C)CS(C)(=O)=O)c1sc(-c2cccnc2)nc1Cl` (stereo not drawn) [Compound 349], for which the melting point was in the range of 152 to 154 °C. In addition, the pest or weed control at 200 ppm in series [1] was 80 to 100%. Besides, the pest or weed control at 200 ppm in series [2] is 80 to 100%.
Take `CC(C)(C)OC(=O)N(C(=O)OC(C)(C)C)c1sc(-c2cncc(F)c2)nc1Cl` [Compound 352]: the melting point fell in the range of 125 to 128 °C. For the same molecule, in series [1], the pest or weed control at 200 ppm is 80 to 100%. The pest or weed control at 200 ppm in series [2] is < 80%.
The corresponding values for `Cc1nc(-c2cccnc2)sc1NC(=O)c1cnn(C)c1` [Compound 355] are 219 to 222 °C, 80 to 100% and < 80%.
The corresponding values for `C=CCN(C(=O)OC(C)(C)C)c1sc(-c2cccnc2)nc1C` [Compound 356] are 72 to 76 °C, 80 to 100% and 80 to 100%.
As for `CSC(C)C(=O)N(C)c1sc(-c2cccnc2)nc1Cl` (stereo not drawn) [Compound 361], the melting point fell in the range of 97 to 104 °C. In addition, the pest or weed control at 200 ppm in series [1] was 80 to 100%. In series [2], the pest or weed control at 200 ppm was < 80%.
Taken in the same sequence, the figures for `CN(C(=O)OC(C)(C)C)c1sc(-c2cncc(F)c2)nc1F` [Compound 366] were 81 to 84 °C, 80 to 100% and 80 to 100%.
